Results published in patent publication US20240207208A1, “Treatments for Diabetes Mellitus and Obesity” (The Board of Trustees of the Leland Stanford Junior …, priority 2011, published 2024).

Experiments:
[1] = Oral glucose tolerance test (OGTT) after local RTX treatment of the intestine; assay type: in vivo, Sprague-Dawley rats
Text: (§1) Adult male Sprague-Dawley rats (Harlan, Indianapolis, IN) weighing 280-350 g were used in all the experiments. The animal protocol was approved by the Institutional Animal Care and Use Committee of the Stanford University Medical Center.
(§2) Rats were randomly divided into six groups: 1, vehicle solution treated on the surface of duodenum (n=4); 2, RTX solution treated on the surface of duodenum (n=4); 3, vehicle solution treated on the surface of ileum (1 rat) or colon (1 rat) (n=2); 4, RTX solution treated on the surface of ileum (2 rats) or colon (1 rat) (n=3); 5. Vehicle solution infuse into duodenum (n=2); 6. RTX solution infuse into duodenum (n=3).
Rats were fasted overnight prior to surgery having free access to water. Under 2% isoflurane-induced anesthesia, the abdomen was opened through a midline incision for the duodenum treatment and lower line for ileum or colon treatment. These intestines were exposed and protected with warm saline sponges around the intestine. Procedure 1: RTX application on the surface of intestine: The cotton applicator with RTX((0.32 mM) or vehicle solution were gently applied topically to the outer surface of entire duodenum (about 10 cm from the beginning of the duodenum) for 5 min. Same treatment in ileum and colon groups were applied on about 10 cm long of distal ileum and colon. Procedure 2: RTX or vehicle infused into duodenum: Two atraumatic clamps used to block on beginning and distal of duodenum. 0.8 ml of 0.32 mM RTX or vehicle was infused into duodenum through a glass syringe with a 27 gauge needle. After 30 min the RTX or vehicle solution were withdrawn and the clamps were released. After treatment, the abdominal incisions were closed. […]
Post RTX treatment 1st, 3rd and 7th week all the rats were performed the OGTT. After 17 hours overnight fasting, blood glucose was measured in conscious rats by tail-stick, using a glucose meter (Bayer Healthcare LLC, Mishawaka, IN). OGTT was measured before (baseline) and each 15 minutes for 2 hours after oral gavage glucose (1 g/kg body weight). […]

[2] = Body weight change monitoring after local RTX treatment of the intestine; assay type: in vivo, Sprague-Dawley rats; design: body weight: unit not given here; settings: for body weight: mean±s.e.
Text: as §1, §2
Rats were fasted overnight prior to surgery having free access to water. Under 2% isoflurane-induced anesthesia, the abdomen was opened through a midline incision for the duodenum treatment and lower line for ileum or colon treatment. These intestines were exposed and protected with warm saline sponges around the intestine. Procedure 1: RTX application on the surface of intestine: The cotton applicator with RTX((0.32 mM) or vehicle solution were gently applied topically to the outer surface of entire duodenum (about 10 cm from the beginning of the duodenum) for 5 min. Same treatment in ileum and colon groups were applied on about 10 cm long of distal ileum and colon. Procedure 2: RTX or vehicle infused into duodenum: Two atraumatic clamps used to block on beginning and distal of duodenum. 0.8 ml of 0.32 mM RTX or vehicle was infused into duodenum through a glass syringe with a 27 gauge needle. After 30 min the RTX or vehicle solution were withdrawn and the clamps were released. After treatment, the abdominal incisions were closed.
RTX solution: RTX stock solution: 1 mg RTX+10% ethanol+10% Tween-80 in saline to make 1 μg RTX/μl in stock solution. RTX work solution (0.32 mM): stock RTX solution (0.2 ml)+Saline (0.8 ml); Vehicle (like stock solution without RTX)
The body weight of rats was measured before RTX treatment and each blood glucose testing day.
Data are presented as means±s.e. Data were compared using Student's t-test. Differences were considered significant at <0.05.

In the case of C=C(C)[C@]12C[C@@H](C)[C@@]34O[C@](Cc5ccccc5)(O[C@@H]1[C@@H]3C=C(COC(=O)Cc1ccc(O)c(OC)c1)C[C@]1(O)C(=O)C(C)=C[C@@H]41)O2 [RTX, Resiniferatoxin], the “glucose tolerance compared with vehicle group (OGTT)” value ([1]; 0.8 ml of 0.32 mM RTX infused into duodenum, 30 min, 2 hours testing time, all testing days) is reported as “not significantly different”, the “glucose tolerance compared with vehicle group (OGTT)” value ([1]; RTX 0.32 mM topically on the surface of duodenum, 5 min, 30 and 45-minute peak levels, 1st, 3rd and 7th week post treatment, P<0.05) is reported as “better glucose tolerance” and the “glucose tolerance compared with vehicle group (OGTT)” value ([1]; RTX 0.32 mM topically on the surface of ileum or colon, 2 hours testing time, all testing days) is reported as “not significantly different”. For the same compound, the body weight ([2]; RTX infused into duodenum, 1st week post treatment) was 102.4±3.0, the body weight ([2]; RTX infused into duodenum, 3rd week post treatment) was 123.1±1.6 and the body weight ([2]; RTX infused into duodenum, 7th week post treatment) was 136.3±2.5. For the same compound, the “body weight compared with vehicle group” value ([2]; RTX infused into duodenum, all measurement days) was “not significantly different”, the body weight ([2]; RTX on the surface of duodenum, 1st week post treatment, P<0.05 vs vehicle and vs RTX infusion) was 92.0±1.0 and the “body weight compared with vehicle group” value ([2]; RTX on the surface of duodenum, 3rd and 7th week post treatment) was “not significantly different”. For the same compound, the body weight ([2]; RTX on the surface of duodenum, 3rd week post treatment, P<0.05 vs RTX infusion) was 110.5±2.6, the body weight ([2]; RTX on the surface of duodenum, 7th week post treatment, P<0.05 vs RTX infusion) was 118.9±0.9 and the “body weight compared with vehicle group” value ([2]; RTX on the surface of ileum or colon, all measurement days) was “not significantly different”.
